Source: ChEMBL document CHEMBL5214886, “An appraisal of anti-mycobacterial activity with structure-activity relationship of piperazine and its analogues: A review” (Eur J Med Chem, 2021)
pIC50: −log10 of the molar value. Values after ≈ are worked out from the molar mass of the structure shown. Values joined by “and” are separate entries in the source; they are usually repeats but may differ in a detail not shown here. Identical values can stand only once.

Columns and labels:
[1] = test system: Mycobacterium tuberculosis; assay: Antimycobacterial activity against Mycobacterium tuberculosis H37Rv assessed as reduction in bacterial growth; assay type: functional
[2] = test system: Mycobacterium tuberculosis; assay: Antimycobacterial activity against Mycobacterium tuberculosis H37Ra assessed as reduction in bacterial growth; assay type: functional
[3] = test system: Mycobacterium tuberculosis; assay: Antimycobacterial activity against Mycobacterium tuberculosis H37Rv assessed as reduction in bacterial growth by BACTEC MGIT method; assay type: functional
[4] = test system: Mycobacterium tuberculosis; assay: Antimycobacterial activity against Mycobacterium tuberculosis H37Rv assessed as reduction in bacterial growth by agar dilution method; assay type: functional
[5] = test system: Mycobacterium tuberculosis; assay: Antimycobacterial activity against Mycobacterium tuberculosis H37Rv assessed as reduction in bacterial growth by MABA assay; assay type: functional
[6] = test system: Mycobacterium tuberculosis; assay: Antimycobacterial activity against Mycobacterium tuberculosis H37Rv ATCC 27294 assessed as reduction in bacterial growth by MABA analysis; assay type: functional
[7] = test system: Mycobacterium tuberculosis; assay: Antimycobacterial activity against Mycobacterium tuberculosis H37Rv assessed as reduction in bacterial growth incubated for 21 days by broth dilution assay; assay type: functional; conditions: 504 h, time 21 day
[8] = test system: Mycobacterium tuberculosis; assay: Antimycobacterial activity against Mycobacterium tuberculosis H37Rv ATCC 27294 assessed as reduction in bacterial growth incubated for 72 hrs by two-fold dilution method; assay type: functional
[9] = molecular target: T1, Enoyl-[acyl-carrier-protein] reductase [NADH] (Mycobacterium tuberculosis, UniProt P9WGR1); assay: Inhibition of Mycobacterium tuberculosis InhA using octenoyl-CoA as substrate in presence of NADH and measured for 10 mins by colorimetric assay
T1 sequence (P9WGR1 whole entry): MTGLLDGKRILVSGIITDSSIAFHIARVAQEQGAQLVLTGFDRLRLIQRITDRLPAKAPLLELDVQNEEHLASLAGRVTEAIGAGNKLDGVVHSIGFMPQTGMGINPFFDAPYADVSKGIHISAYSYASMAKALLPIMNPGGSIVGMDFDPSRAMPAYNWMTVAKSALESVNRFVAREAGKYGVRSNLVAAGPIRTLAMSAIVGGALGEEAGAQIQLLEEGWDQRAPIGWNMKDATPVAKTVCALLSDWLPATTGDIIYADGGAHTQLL

[10] = test system: Mycobacterium tuberculosis; assay: Antimycobacterial activity against Mycobacterium tuberculosis H37Rv ATCC 27294 assessed as reduction in bacterial growth incubated for 7 days by MABA analysis; assay type: functional; conditions: H37Rv ATCC 27294, 168 h, time 7 day
[11] = test system: Mycobacterium tuberculosis; assay: Antimycobacterial activity against Mycobacterium tuberculosis H37Rv assessed as reduction in bacterial growth incubated for 15 days by turbidometric method; assay type: functional; conditions: 360 h, time 15 day
[12] = test system: Mycobacterium tuberculosis; assay: Antimycobacterial activity against Mycobacterium tuberculosis H37Rv assessed as reduction in bacterial growth by MABA analysis; assay type: functional
[13] = test system: Mycobacterium tuberculosis; assay: Antimycobacterial activity against Mycobacterium tuberculosis H37Rv assessed as reduction in bacterial growth incubated for 6 days by resazurin reduction microplate assay; assay type: functional; conditions: 144 h, time 6 day
[14] = Aqueous solubility of the compound incubated for 3 days by shake flask method; assay type: physicochemical; conditions: water; time 3 day
[15] = test system: Mycobacterium tuberculosis; assay: Antimycobacterial activity against Mycobacterium tuberculosis My 331/88 (H37Rv) assessed as reduction in bacterial growth incubated for 14 days by microdilution method; assay type: functional; conditions: 336 h, time 14 day
[16] = test system: Mycobacterium tuberculosis; assay: Antimycobacterial activity against Mycobacterium tuberculosis H37Rv ATCC 27294 assessed as reduction in bacterial growth and measured after 21 days by radiometric BACTEC method; assay type: functional; conditions: H37Rv ATCC 27294, 504 h, time 21 day
[17] = test system: Mycobacterium tuberculosis; assay: Antimycobacterial activity against Mycobacterium tuberculosis H37Rv ATCC 27294 assessed as reduction in bacterial growth; assay type: functional
[18] = test system: Mycobacterium tuberculosis; assay: Antimycobacterial activity against Mycobacterium tuberculosis H37Rv assessed as reduction in bacterial growth and measured after 7 days by resazurin assay; assay type: functional, organism-based; conditions: 168 h
[19] = test system: Mycobacterium tuberculosis; assay: Antimycobacterial activity against Mycobacterium tuberculosis kurono assessed as reduction in bacterial colonies incubated for 14 days by colony counting method; assay type: functional; conditions: 336 h, time 14 day
[20] = test system: Mycobacterium tuberculosis; assay: Antimycobacterial activity against Mycobacterium tuberculosis H37Rv assessed as reduction in bacterial colonies by colony counting method; assay type: functional
[21] = test system: Mycobacterium tuberculosis; assay: Antimycobacterial activity against Mycobacterium tuberculosis H37Rv ATCC 27294 assessed as reduction in bacterial growth by fluorescence based MABA method; assay type: functional
[22] = test system: Mycobacterium tuberculosis; assay: Antimycobacterial activity against Mycobacterium tuberculosis H37Rv assessed as reduction in bacterial growth by REMA analysis; assay type: functional

SMILES: O=C(NCc1ccc(N2CCN(Cc3ccccc3)CC2)cc1)c1ccc([N+](=O)[O-])o1
- MIC [1]: 0.014 µM (≈ 0.00589 µg/mL)
- MIC [2]: 0.014 µM (≈ 0.00589 µg/mL)

SMILES: N#Cc1ccc(Nc2nc(Oc3ncnc4ccccc34)nc(N3CCN(c4cccc(Cl)c4Cl)CC3)n2)cc1C(F)(F)F
- MIC [3]: > 9.79 µM
- MIC [4]: 9.79 µM (≈ 6.25 µg/mL)

SMILES: CCn1cc(C(=O)O)c(=O)c2cc(F)c(N3CCN(CN4C(=O)/C(=N\c5ncc(Cc6cc(OC)c(OC)c(OC)c6)c(N)n5)c5cc(Cl)ccc54)C(C)C3)c(F)c21 (stereo not drawn)
- MIC [5]: 1.91 µM (≈ 1.56 µg/mL)
- MIC [6]: 1.91 µM (≈ 1.56 µg/mL)

SMILES: CCn1cc(C(=O)O)c(=O)c2cc(F)c(N3CCN(c4nnc(SCC(=O)c5ccc([N+](=O)[O-])cc5)s4)CC3)cc21
- MIC [7]: 1.68 µM (≈ 1.01 µg/mL)

SMILES: O=C(CSc1nnc(N2CCN(c3cc4c(cc3F)c(=O)c(C(=O)O)cn4C3CC3)CC2)s1)c1ccc(Cl)cc1
- MIC [7]: 1.67 µM (≈ 1 µg/mL)

SMILES: O=C(CSc1nnc(N2CCN(c3cc4c(cc3F)c(=O)c(C(=O)O)cn4C3CC3)CC2)s1)c1ccc([N+](=O)[O-])cc1
- MIC [7]: 0.82 µM (≈ 0.501 µg/mL)

SMILES: CCOC(=O)C1=NOC(c2ccc(N3CCN(Cc4ccccc4)CC3)cc2)C1 (stereo not drawn)
- MIC90 [7]: 3.96 µM (≈ 1.56 µg/mL)

SMILES: COc1ccc2cc(C(=O)CN3CCN(c4c(F)cc5c(=O)c(C(=O)O)cn(C6CC6)c5c4OC)CC3)c(=O)oc2c1
- MIC [8]: 0.43 µM (≈ 0.248 µg/mL)

SMILES: O=C(c1ccc2[nH]ccc2c1)N1CCN(C2c3ccccc3-c3ccc([N+](=O)[O-])cc32)CC1 (stereo not drawn)
- pIC50 [9]: 6.57

SMILES: CC(C)(C)c1ccc(S(=O)(=O)N2CCN(c3nc4ccccc4c4ccccc34)CC2)cc1
- MIC [10]: 3.39 µM (≈ 1.56 µg/mL)

SMILES: O=C(c1ccncc1)N1CCN(c2nc3ccccc3c3ccccc23)CC1
- MIC [10]: 4.23 µM (≈ 1.56 µg/mL)

SMILES: Cc1cccc(-c2nc(CN3CCN(c4ccnc5cc(-c6cccnc6)ccc45)CC3)no2)c1C
- MIC [11]: 0.52 µM (≈ 0.248 µg/mL)

SMILES: CON=C1CCC(CN2CCN(c3nc(=O)c4cc(C(F)(F)F)cc([N+](=O)[O-])c4s3)CC2)CC1 (stereo not drawn)
- MIC [12]: < 0.03 µM

SMILES: CCON=C1CCC(CN2CCN(c3nc(=O)c4cc(C(F)(F)F)cc([N+](=O)[O-])c4s3)CC2)CC1 (stereo not drawn)
- MIC [12]: < 0.03 µM

SMILES: O=c1nc(N2CCN(S(=O)(=O)C3CC3)CC2)sc2c([N+](=O)[O-])cc(C(F)(F)F)cc12
- MIC [13]: 0.0064 µM (≈ 0.00297 µg/mL)
- solubility thermodynamic at 72 h [14]: 15.9 µM (≈ 7.39 µg/mL)

SMILES: CCCCOC(=O)Nc1ccc(C(O)CN2CCN(c3ccccc3F)CC2)cc1 (stereo not drawn)
- MIC [15]: 8 µM (≈ 3.32 µg/mL)

SMILES: CCOC(=O)N1CCN(CC(=O)C2C(c3ccc(OC)cc3)C(C)C(=O)C(C)C2c2ccc(OC)cc2)CC1 (stereo not drawn)
- MIC [16]: 29.8 µM (≈ 16 µg/mL)

SMILES: COC(=O)COc1ccc2ccccc2c1CN1CCN(C/C=C/c2ccccc2)CC1
- MIC [1]: 9.3 µM (≈ 4 µg/mL)

SMILES: O=C(NCc1ccc(N2CCN(c3ccc(F)cc3F)CC2)cc1)c1ccc([N+](=O)[O-])o1
- MIC [12]: < 0.04 µM

SMILES: COc1cc(N2CCN(c3ccc(N4C[C@H](CNC(C)=O)OC4=O)cc3F)CC2)nc2nccn12
- MIC [17]: 1.03 µM (≈ 0.498 µg/mL)

SMILES: Cc1ccc2nc(-c3ccccc3)c(C(c3ccccc3)N(CC(=O)N3CCN(c4ccccn4)CC3)Cc3ccccc3)cc2c1 (stereo not drawn)
- pIC50 [18]: 5.40

SMILES: Cc1cn2c(C(=O)NCc3ccc(N4CCN(c5ccc(C(F)(F)F)cn5)CC4)c(F)c3)cnc2s1
- MIC [10]: 0.004 µM (≈ 0.00207 µg/mL)

SMILES: CCOC(=O)N1CCN(CC(=O)C2C(c3ccc(Cl)cc3)C(C)C(=O)C(C)C2c2ccc(Cl)cc2)CC1 (stereo not drawn)
- MIC [16]: 29.3 µM (≈ 16 µg/mL)

SMILES: CCOC(=O)N1CCN(CC(=O)C2C(c3ccccc3)C(C)C(=O)C(C)C2c2ccccc2)CC1 (stereo not drawn)
- MIC [16]: 33.6 µM (≈ 16 µg/mL)

SMILES: CCOC(=O)c1ccc(N2CCN(c3nccc(N4CCOc5nc([N+](=O)[O-])cn5C4)n3)CC2)cc1
- MIC [5]: > 100 µM

SMILES: CCOC(=O)N1CCN(CC(=O)C2C(c3ccccc3)CC(=O)C(CC)C2c2ccccc2)CC1 (stereo not drawn)
- MIC [16]: 33.6 µM (≈ 16 µg/mL)

SMILES: CC(C)(c1ccc(OCc2ccc(C(F)(F)F)cc2)cc1)N1CCN(c2ccc(OC[C@H]3CCn4cc([N+](=O)[O-])nc4O3)cc2)CC1
- MIC [19]: 0.001 µM (≈ 0.000652 µg/mL)

SMILES: CCOC(=O)N1CCN(CC(=O)C2C(c3cccc(F)c3)C(C)C(=O)C(C)C2c2cccc(F)c2)CC1 (stereo not drawn)
- MIC [16]: 31.2 µM (≈ 16 µg/mL)

SMILES: O=C(CCCc1cc2ccccc2[nH]1)N1CCN(c2nc3ccccc3c3ccccc23)CC1
- MIC [10]: 3.48 µM (≈ 1.56 µg/mL)

SMILES: CCCCCCCCCN1CCN(c2c(F)cc3c(c2OC)C(C2CC2)=CC(C(=O)O)C3=O)CC1 (stereo not drawn)
- MIC [20]: 0.25 µM (≈ 0.122 µg/mL)

SMILES: COc1ccc(N2CCN(c3ccc(CNC(=O)c4ccc([N+](=O)[O-])o4)cc3)CC2)cc1
- MIC [12]: < 0.04 µM

SMILES: CC(=O)NC[C@H]1CN(c2ccc(N3CCN(c4ccc5nccn5n4)CC3)c(F)c2)C(=O)O1
- MIC [17]: 1.1 µM (≈ 0.499 µg/mL)

SMILES: O=C(NCc1ccc(N2CCN(c3ccc(F)cc3)CC2)cc1)c1ccc([N+](=O)[O-])o1
- MIC [12]: < 0.04 µM

SMILES: CC1COc2c(N3CCNCC3)c(F)cc3c(=O)c(C(=O)O)cn1c23 (stereo not drawn) [DESMETHYL-OFLOXACIN]
- MIC [21]: 11.7 µM and 4.55 µM

SMILES: CC[C@@H](CO)NCCN[C@@H](CC)CO [ETHAMBUTOL]
- MIC [15]: 1.1 µM (≈ 0.225 µg/mL)

SMILES: COc1c(N2CCNC(C)C2)c(F)cc2c(=O)c(C(=O)O)cn(C3CC3)c12 (stereo not drawn) [GATIFLOXACIN]
- MIC [8]: 0.66 µM (≈ 0.248 µg/mL)

SMILES: NNC(=O)c1ccncc1 [ISONIAZID]
- MIC [12]: 0.06 µM (≈ 0.00823 µg/mL)
- MIC [7]: 10.9 µM (≈ 1.5 µg/mL)

SMILES: O=c1nc(N2CCN(CC3CCCCC3)CC2)sc2c([N+](=O)[O-])cc(C(F)(F)F)cc12 [MACOZINONE]
- MIC [22]: < 0.42 µM
- MIC [13]: 0.0004 µM (≈ 0.000183 µg/mL)

SMILES: CC1COc2c(N3CCN(C)CC3)c(F)cc3c(=O)c(C(=O)O)cn1c23 (stereo not drawn) [OFLOXACIN]
- MIC [15]: 1 µM (≈ 0.361 µg/mL)

SMILES: NC(=O)c1cnccn1 [PYRAZINAMIDE]
- MIC [3]: 50.8 µM (≈ 6.25 µg/mL)
- MIC [4]: 50.8 µM (≈ 6.25 µg/mL)

SMILES: CO[C@H]1/C=C/O[C@@]2(C)Oc3c(C)c(O)c4c(O)c(c(/C=N/N5CCN(C)CC5)c(O)c4c3C2=O)NC(=O)/C(C)=C\C=C\[C@H](C)[C@H](O)[C@@H](C)[C@@H](O)[C@@H](C)[C@H](OC(C)=O)[C@@H]1C [RIFAMPIN]
- MIC [12]: > 48.6 µM
